Measured values taken from US20020128268A1, “Use of 2-hydrazino-1,3-thiazoles as antioxidants” (priority 2000, published 2002).

Columns and labels:
[1] = DPPH (1,1-diphenyl-2-picryl-hydrazyl) test for eliminating free radicals; type: biochemical; conditions: effective relative concentration c(test compound)/c(DPPH) at which the DPPH free radical was 50% eliminated; methanol, absorption at 515 nm
Description: The activity of the exemplary compounds as free radical-capturing agents was compared with that of conventional free radical-capturing agents. In this connection, use was made of the DPPH (1,1-diphenyl-2-picryl-hydrazyl) test for eliminating free radicals.
DPPH was dissolved in methanol to give a concentration of 100 μmol/l. A series of dilutions of the exemplary compounds, Vitamin C, α-tocopherol and dibutylhydroxytoluene were prepared in methanol. Methanol served as the control. 2500 μl of the DPPH solution were mixed with 500 μl of each test solution and the decrease in the absorption at 515 nm was read until the decrease was less than 2% per hour. The activity of the test substances as free radical-capturing agents was calculated using the following equation:
Activity as free radical-capturing agent (%)=100—(absorption of the test compounds)/(absorption of the control)×100.
For each test compound, the effective relative concentration EC50 (based on the concentration of DPPH which was initially present, EC=c (test compound)/c(DPPH)) of a test compound, i.e. at which the DPPH free radical was 50% eliminated, was calculated from the activity as a free radical-capturing agent (%) in a series of dilutions of test compounds.

[2] = Rancimat accelerated autooxidation of lipids by air, soyabean oil; conditions: antioxidative index = IP(with test solution)/IP(control sample)
Description: (§1) The activity of the exemplary compounds as antioxidants was compared with that of conventional antioxidants. The accelerated autooxidation of lipids by air with or without antioxidant, as measured using the Rancimat appliance (Rancimat is a registered trademark belonging to Metrohm AG, Herisau, Switzerland) was used as the test system. The exemplary compounds, Vitamin C, α-tocopherol and dibutyihydroxytoluene were dissolved in methanol or acetone, and 100 μl of the respective test solution were added to a previously prepared oil sample weighing 3 g. Solvent only was added to a control sample. A constant, dry stream of air (20 I/h) was blown through the heated oil sample containing the test solution, and the volatile oxidation products (principally short-chain fatty acids such as formic and acetic acid) were collected in a recipient vessel containing water. The conductivity of this aqueous solution was measured and documented continuously. In this connection, the oxidation of (unsaturated) fats proceeds only very slowly for a while and then suddenly increases rapidly. The time which elapses until the increase is termed the induction period (IP). The antioxidative index (AOI) was obtained using the following equation: AOI=IP(with test solution)/IP(control sample). The results for the experiments in soyabean oil at 100° C. and, at 80° C., in squalene, which was purified on alumina type N and stabilized with 1 ppm α-tocopherol, are shown in Table 6: […]

[3] = Rancimat accelerated autooxidation of lipids by air, squalene; conditions: antioxidative index = IP(with test solution)/IP(control sample), squalene purified on alumina type N and stabilized with 1 ppm α-tocopherol
Description: as §1

EC50/ (mol/mol) [1] [mol/mol] | SMILES | AOl in Soyabean oil at 100° C. containing 0.05% test substance [2] | AOl in squalene at 80° C. containing 0.005% test substance [3]
0.17 | NNc1nc2cc(S(=O)(=O)O)ccc2s1 [2-Hydrazino-1,3-benzothiazole-5-sulfonic acid] | – | –
0.15 | NNc1nc2ccccc2s1 [2-Hydrazino-1,3-benzothiazole] | 17 | 97
0.13 | NNc1nc(-c2ccccc2)cs1 [2-Hydrazino-4-phenyl-1,3-thiazole] | 8.5 | 13
0.14 | NNc1nnc(-c2ccc(F)cc2)s1 [2-Hydrazino-5-(4-fluorophenyl)-1,3,4-thiadiazole] | 15 | 38
0.10 | NNc1nc2cccnc2s1 [2-Hydrazino-thiazolo-[5,4-b]pyridine] | – | 60
0.12 | COc1cc2nc(NN)sc2cc1OC [5,6-Dimethoxy-2-hydrazino-1,3-benzothiazole] | 4.1 | 24
– | COc1ccc2nc(NN)sc2c1 [6-Methoxy-2-hydrazino-1,3-benzothiazole] | 24 | 23
0.28 | Cc1ccc2nc(NN)sc2c1 [6-Methyl-2-hydrazino-1,3-benzothiazole] | 2.4 | 67
0.15 | CC(C)(C)c1ccc2nc(NN)sc2c1 [6-tert.-Butyl-2-hydrazino-1,3-benzothiazole] | 6 | 14
0.27 | O=C1O[C@H]([C@@H](O)CO)C(O)=C1O [Vitamin C, reference compound] | 1.2 | 0.7
0.25 | Cc1c(C)c2c(c(C)c1O)CC[C@@](C)(CCC[C@H](C)CCC[C@H](C)CCCC(C)C)O2 [α-Tocopherol, reference compound] | 5.1 | 39

SMILES | EC50/ (mol/mol) [1] [mol/mol] | AOl in Soyabean oil at 100° C. containing 0.05% test substance [2] | AOl in squalene at 80° C. containing 0.005% test substance [3]
Cc1cc(C(C)(C)C)c(O)c(C(C)(C)C)c1 [Dibutylhydroxytoluene, reference compound] | 0.24 | 4.8 | 38
